In PubChem BioAssay (NCI):
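Cultured in 96-well plates, cells were exposed to test compound for 48 hours across five concentrations. GI50: concentration for 50% inhibition of growth. TGI marks complete inhibition of growth.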

Key:
Test in all cases: NCI tumour cell line growth inhibition, 48 h
OVCAR-5 ovarian = system: OVCAR-5 ovarian
NCI-H23 lung = system: NCI-H23 lung
HL-60(TB) leukemia = system: HL-60(TB) leukemia
LOX IMVI melanoma = system: LOX IMVI melanoma
RPMI-8226 leukemia = system: RPMI-8226 leukemia
HOP-92 NSCLC = system: HOP-92 NSCLC
SR leukemia = system: SR leukemia
UACC-62 melanoma = system: UACC-62 melanoma
HT29 colon = system: HT29 colon
MALME-3M melanoma = system: MALME-3M melanoma

| SMILES | GI50 (OVCAR-5 ovarian) | TGI (OVCAR-5 ovarian) | GI50 (NCI-H23 lung) | TGI (NCI-H23 lung) | GI50 (HL-60(TB) leukemia) | TGI (HL-60(TB) leukemia) | GI50 (LOX IMVI melanoma) | TGI (LOX IMVI melanoma) | GI50 (RPMI-8226 leukemia) | TGI (RPMI-8226 leukemia) | GI50 (HOP-92 NSCLC) | TGI (HOP-92 NSCLC) | GI50 (SR leukemia) | TGI (SR leukemia) | GI50 (UACC-62 melanoma) | TGI (UACC-62 melanoma) | GI50 (HT29 colon) | TGI (HT29 colon) | TGI (MALME-3M melanoma) | GI50 (MALME-3M melanoma) |
| --- | --- | --- | --- | --- | --- | --- | --- | --- | --- | --- | --- | --- | --- | --- | --- | --- | --- | --- | --- | --- |
| COc1ccc2c(c1OC)C(=O)O[C@@H]2[C@H]1c2c(c(Br)c3c(c2OC)OCO3)CCN1C | > 100 µM | > 100 µM | > 100000 nM | > 100 µM | 1820 nM | > 100 µM | 6000 nM | > 100 µM | 6.97 µM | > 100 µM | 21.7 µM | > 100 µM | 918 nM | > 100 µM | 4310 nM | > 100 µM | 47000 nM | > 100 µM |  |  |
| COc1cc(/C=C\c2ccc(Cl)cc2)cc(OC)c1OC |  | > 31.6 µM |  | 1.12 µM |  | 2.45 µM |  | > 100 µM |  | 46.4 µM |  |  |  | 16.7 µM |  | > 100 µM |  | 10.2 µM | 57.3 µM |  |
| O=[N+]([O-])c1cc2c(ccc3occc32)o1 | 3.5 µM | 15.4 µM | 2690 nM | 15.6 µM | 1590 nM | 6.09 µM | 1250 nM | 3.85 µM | 4 µM | 44.3 µM |  |  | 2000 nM | 9.64 µM | 1450 nM | 3.41 µM | 2450 nM | 18.8 µM | 3.11 µM | 1540 nM |
| CCCC(CCC)C(=O)OCC1(CO)C/C(=C\c2ccc(C(F)(F)F)cc2)C(=O)O1 (stereo not given) | 17.1 µM | 31.7 µM | 15800 nM | 32.1 µM | 308 nM | 8.13 µM | 10000 nM | 22.8 µM | 10.7 µM | 26.9 µM |  |  | 14900 nM | 31.1 µM | 11000 nM | 27.1 µM | 14400 nM | 30.6 µM | 31.7 µM | 16400 nM |
| COc1cc2c(cc1OCCCCCn1c3ccccc3c3ccccc31)N=C[C@@H]1CCCN1C2=O | 2.42 µM | 5.49 µM | 2690 nM | 7.04 µM | 1720 nM | 4.38 µM | 2010 nM | 4.88 µM |  |  |  |  | 15400 nM | > 100 µM | 1860 nM | 3.8 µM | 2080 nM | 5.29 µM | 4.72 µM | 2200 nM |
| O=CN1N=C(c2ccc(Nc3ccnc4cc(Cl)ccc34)cc2)CC1c1ccc(Cl)cc1 (stereo not given) | 6.46 µM | > 100 µM | 2770 nM | > 100 µM | 376 nM | > 100 µM | 599 nM | > 100 µM |  |  | > 100 µM | > 100 µM | 324 nM | > 100 µM | 567 nM | > 100 µM | 407 nM | 8.5 µM |  |  |
